Key:
myeloperoxidase (MPO) [1] = molecular target: T1, myeloperoxidase (MPO) (Homo sapiens (Human), UniProt P05164); assay: MPO peroxidation assay (Amplex Red assay); type: biochemical; conditions: potency range class
Outline: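 Human MPO at 200 pM with 40 nM H2O2 preincubated 10 min at room temperature with inhibitor in 100 mM KPi pH 7.4. Reaction started with Amplex Red mixture (200 μM Amplex Red, 10 mM H2O2); resorufin fluorescence (Ex 535, Em 590 nm) read kinetically for 15 min. IC50 fitted from slopes over 180-540 s.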

myeloperoxidase (MPO) [2] = molecular target: T1, myeloperoxidase (MPO); assay: MPO chlorination assay (APF assay); type: biochemical; conditions: potency range class
Outline: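 Human MPO (200 pM) preincubated 10 min at room temperature with inhibitor and 120 mM NaCl in 100 mM KPi pH 7.4. Reaction started with APF plus 10 μM H2O2, and hypochlorite-generated fluorescein read kinetically (ex 485/em 535 nm) for 3 min. IC50 from linear-phase slopes fitted to a four-parameter equation.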

T1 sequence (P05164 49-745): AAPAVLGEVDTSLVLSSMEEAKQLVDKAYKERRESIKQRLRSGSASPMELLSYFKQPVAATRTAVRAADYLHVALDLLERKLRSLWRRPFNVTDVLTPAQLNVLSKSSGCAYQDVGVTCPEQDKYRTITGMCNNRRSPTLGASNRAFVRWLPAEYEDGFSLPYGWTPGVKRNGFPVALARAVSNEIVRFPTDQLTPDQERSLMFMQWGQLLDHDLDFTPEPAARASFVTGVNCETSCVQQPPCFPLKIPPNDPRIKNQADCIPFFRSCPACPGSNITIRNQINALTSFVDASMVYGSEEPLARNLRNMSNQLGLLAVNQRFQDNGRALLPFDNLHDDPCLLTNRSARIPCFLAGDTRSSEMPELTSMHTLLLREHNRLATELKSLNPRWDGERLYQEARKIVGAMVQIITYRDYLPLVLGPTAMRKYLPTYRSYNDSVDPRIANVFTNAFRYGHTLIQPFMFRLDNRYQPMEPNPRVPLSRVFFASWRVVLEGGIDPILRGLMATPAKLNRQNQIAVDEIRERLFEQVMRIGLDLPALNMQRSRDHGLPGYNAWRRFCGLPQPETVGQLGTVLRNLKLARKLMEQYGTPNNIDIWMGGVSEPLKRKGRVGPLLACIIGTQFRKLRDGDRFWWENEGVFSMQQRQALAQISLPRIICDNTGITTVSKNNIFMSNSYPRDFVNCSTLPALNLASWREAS

Row | Compound | IC50 (myeloperoxidase (MPO) [1]) [nM] | IC50 (myeloperoxidase (MPO) [2]) [nM]
1 | Nc1cc(Cc2cnn(Cc3cccc([C@H]4CNC(=O)C4)c3)c2)c2nn[nH]c2n1 [Example 188, (S)-4-(3-((4-((5-Amino-3H-[1,2,3]triazolo[4,5-b]pyridin-7-yl)methyl)-1H-pyrazol-1-yl)methyl)phenyl)pyrrolidin-2-one] | 1 to 100 | 101 to 999
2 | Nc1cc(Cc2cnn(Cc3cccc([C@@H]4CNC(=O)C4)c3)c2)c2nn[nH]c2n1 [Example 189, (R)-4-(3-((4-((5-Amino-3H-[1,2,3]triazolo[4,5-b]pyridin-7-yl)methyl)-1H-pyrazol-1-yl)methyl)phenyl)pyrrolidin-2-one] | 1 to 100 | 101 to 999
3 | Nc1cc(Cc2cnn(Cc3cccc([C@@H]4CCNC4)c3)c2)c2nn[nH]c2n1 [Example 190] | 1 to 100 | 1 to 100
4 | Cc1ccc([C@H]2CNC(=O)C2)cc1Cn1cc(Cc2cc(N)nc3[nH]nnc23)cn1 [Example 192, (4S)-4-(3-{[4-({5-Amino-3H-[1,2,3]triazolo[4,5-b]pyridin-7-yl}methyl)-1H-pyrazol-1-yl]methyl}-4-methylphenyl)pyrrolidin-2-one] | 101 to 999 | 101 to 999
5 | Nc1cc(Cc2cnn(Cc3cc([C@@H]4CCNC4)ccc3C(F)(F)F)c2)c2nn[nH]c2n1 [Example 193, 7-{[1-({5-[(3S)-Pyrrolidin-3-yl]-2-(trifluoromethyl)phenyl}methyl)-1H-pyrazol-4-yl]methyl}-3H-[1,2,3]triazolo[4,5-b]pyridin-5-amine] | 1 to 100 | 101 to 999
6 | Cc1ccc([C@@H]2CCNC2)cc1Cn1cc(Cc2cc(N)nc3[nH]nnc23)cn1 [Example 194, 7-{[1-({2-Methyl-5-[(3S)-pyrrolidin-3-yl]phenyl}methyl)-1H-pyrazol-4-yl]methyl}-3H-[1,2,3]triazolo[4,5-b]pyridin-5-amine] | 1 to 100 | 1000 to 10000
7 | Nc1cc(Cc2cnn(Cc3cc(F)cc([C@@H]4CCNC4)c3)c2)c2nn[nH]c2n1 [Example 195, 7-{[1-({3-Fluoro-5-[(3S)-pyrrolidin-3-yl]phenyl}methyl)-1H-pyrazol-4-yl]methyl}-3H-[1,2,3]triazolo[4,5-b]pyridin-5-amine] | 1 to 100 | 1 to 100

Second part, the compound after the results:

Row | IC50 (myeloperoxidase (MPO) [1]) [nM] | IC50 (myeloperoxidase (MPO) [2]) [nM] | Compound
8 | 1 to 100 | 1 to 100 | Nc1cc(Cc2cnn(Cc3cc(Cl)cc([C@@H]4CCNC4)c3)c2)c2nn[nH]c2n1 [Example 196, 7-{[1-({3-Chloro-5-[(3S)-pyrrolidin-3-yl]phenyl}methyl)-1H-pyrazol-4-yl]methyl}-3H-[1,2,3]triazolo[4,5-b]pyridin-5-amine]
9 | 1 to 100 | 1 to 100 | COc1cc(Cn2cc(Cc3cc(N)nc4[nH]nnc34)cn2)cc([C@@H]2CCNC2)c1 [Example 197, 7-{[1-({3-Methoxy-5-[(3S)-pyrrolidin-3-yl]phenyl}methyl)-1H-pyrazol-4-yl]methyl}-3H-[1,2,3]triazolo[4,5-b]pyridin-5-amine]
10 | 1 to 100 | 101 to 999 | Nc1cc(Cc2cnn(Cc3cc([C@@H]4CCNC4)ccc3Cl)c2)c2nn[nH]c2n1 [Example 198, 7-{[1-({2-Chloro-5-[(3 S)-pyrrolidin-3-yl]phenyl}methyl)-1H-pyrazol-4-yl]methyl}-3H-[1,2,3]triazolo[4,5-b]pyridin-5-amine]
11 | 1 to 100 | 1 to 100 | Nc1cc(Cc2cnn(Cc3cc([C@@H]4CCNC4)cc(F)c3F)c2)c2nn[nH]c2n1 [Example 199, 7-{[1-({2,3-Difluoro-5-[(3S)-pyrrolidin-3-yl]phenyl}methyl)-1H-pyrazol-4-yl]methyl}-3H-[1,2,3]triazolo[4,5-b]pyridin-5-amine]
12 | 1 to 100 | 1 to 100 | Nc1cc(Cc2cnn(Cc3cc([C@@H]4CCNC4)ccc3OC(F)F)c2)c2nn[nH]c2n1 [Example 200, 7-[(1-{[2-(Difluoromethoxy)-5-[(3 S)-pyrrolidin-3-yl]phenyl]methyl}-1H-pyrazol-4-yl)methyl]-3H-[1,2,3]triazolo[4,5-b]pyridin-5-amine]
